{"source": "patent US20020069423A1", "about": "(priority 2000, published 2002)", "key": {"PrP^ac [1]": {"target": "PrP^ac (Mus musculus, UniProt P04925)", "sequence (P04925 23-230 limits assumed)": "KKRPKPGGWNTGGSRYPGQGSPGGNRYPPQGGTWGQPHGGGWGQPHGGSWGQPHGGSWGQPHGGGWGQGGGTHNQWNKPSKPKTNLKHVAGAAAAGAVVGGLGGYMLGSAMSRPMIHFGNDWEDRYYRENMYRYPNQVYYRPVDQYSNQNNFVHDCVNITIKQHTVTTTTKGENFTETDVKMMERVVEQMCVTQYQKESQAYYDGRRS", "conditions": "cell culture; not tested in animal models; cited from earlier work"}, "[2]": {"tested_on": "untransfected bovine fetal fibroblasts (BFF cells)", "assay_type": "cell-based"}, "PrP^ac [3]": {"target": "PrP^ac (Mesocricetus auratus, UniProt P04273)", "sequence (P04273 23-231 limits assumed)": "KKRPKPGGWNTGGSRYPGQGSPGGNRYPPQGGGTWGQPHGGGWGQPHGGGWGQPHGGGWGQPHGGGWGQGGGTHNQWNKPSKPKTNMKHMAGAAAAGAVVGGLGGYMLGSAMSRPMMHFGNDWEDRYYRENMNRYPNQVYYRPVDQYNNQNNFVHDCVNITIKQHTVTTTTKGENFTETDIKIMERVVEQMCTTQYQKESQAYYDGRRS", "conditions": "scrapie-infected hamsters, controlled study; cited from earlier work"}}}
{"compound": "Nc1c(/N=N/c2ccc(-c3ccc(/N=N/c4cc(S(=O)(=O)O)c5ccccc5c4N)cc3)cc2)cc(S(=O)(=O)O)c2ccccc12", "note": "[Congo red]", "values": [{"measurement": "effect on accumulation of PrP^ac", "setting": "PrP^ac [1]", "value": "prevent accumulation of PrP^ac"}]}
{"compound": "CN[C@@H]1[C@@H](O)[C@@H](O[C@@H]2[C@@H](O)[C@H](O[C@H]3O[C@H]([C@@H](C)O)[C@@H](O)[C@H](O)[C@H]3N)[C@@H](N)C[C@H]2N)OC[C@]1(C)O", "note": "[G418, geneticin (G418)]", "values": [{"measurement": "concentration sufficient to kill non-neomycin containing BFF cells but allow rapid growth of BFF cells with transfected neomycin gene", "setting": "[2]", "value": 400, "unit": "µg/mL"}, {"measurement": "concentration that will sufficiently kill non-neomycin containing BEF cells but allow proliferation of cells with transfected neomycin gene", "setting": "[2]", "value": 400, "unit": "µg/mL"}, {"measurement": "lag time in drug selection", "setting": "[2]", "value": "approximately 3 days"}, {"measurement": "time of drug selection until BFF cells were dead", "setting": "[2]", "value": "≤ 3", "unit": "days"}]}
{"compound": "C[C@@H]1[C@H](O)[C@@H](C)/C=C/C=C/C=C/C=C/C=C/C=C/C=C/[C@H](O[C@@H]2O[C@H](C)[C@@H](O)[C@H](N)[C@@H]2O)C[C@@H]2O[C@](O)(C[C@@H](O)C[C@@H](O)[C@H](O)CC[C@@H](O)C[C@@H](O)CC(=O)O[C@H]1C)C[C@H](O)[C@H]2C(=O)O", "note": "[amphotericin B]", "values": [{"measurement": "effect on accumulation of PrP^ac", "setting": "PrP^ac [3]", "value": "delayed the accumulation of PrP^ac"}]}
{"compound": "pentosan polysulfate", "values": [{"measurement": "effect on accumulation of PrP^ac", "setting": "PrP^ac [1]", "value": "prevent accumulation of PrP^ac"}]}
